In BindingDB's records for doi:10.1021/jm401549m (Chiesi Farmaceutici, 2014):

Molecular target: cGMP-specific 3',5'-cyclic phosphodiesterase PDE5A (Homo sapiens) (UniProt O76074)
Experiment: Inhibition of human platelet PDE5

IC50: > 1000 nM
SMILES: CS(=O)(=O)Nc1ccc(C(=O)O[C@@H](Cc2c(Cl)c[n+]([O-])cc2Cl)c2ccc(OC(F)F)c(OCC3CC3)c2)cc1OCC1CC1 [Chf-6001]
